In US12662493B2, “Non-immunosuppressive FK506 analogs and use thereof” (The Johns Hopkins University, priority 2019, dated 2026):

Legend:
[1] = system: full-thickness excisional wounds; details: mouse, in vivo; cited from earlier work
[2] = system: BMP signaling pathway (ID1 gene promoter); test: BMP-response-element (BRE) luciferase pathway reporter in Jurkat T cells; assay type: cell-based; details: for BRE reporter (ID-1 promoter luciferase) activation: 18 h, normalized to DMSO; for reduction of FK506- or FKVP-induced BRE reporter activity: LDN at 100 nM
Experimental: (§1) Jurkat (E6.1, ATCC) cells were cultured in RPMI with 10% FBS and 1.5% PennStrep. Jurkat cells (1×10^6) were transfected with 10 μg of BRE-Luciferase (kindly provided by Martine Roussel & Peter ten Dijke) or NFAT-Luciferase cDNA (Promega) by electroporation (BioRad, square-wave, 250V, […]) in 400 μL serum/antibiotic free RPMI with 0.5% DMSO. Thirty minutes after transfection, cells were transferred to complete RPMI and rested overnight. Before plating, cells were re-suspended in fresh media and diluted to 0.5×10^6 cells/mL. HEK293T cells were cultured in DMEM with 10% FBS, 1% PennStrep, and 500 μg/mL G418 (Corning). Cells were transfected using SuperFect reagent and supplied transfection protocols. HUVEC cells were cultured in Lonza Endothelial Cell Growth Medium (EGM-2) and used between passages 3 and 7. All cells were cultured at 37° C. with 5% CO2.
Jurkat T cells transfected with BRE-Luc were split into a 96-well plate (80 μL/well of 0.5×10^6 cells/mL)) and treated with previously stated compounds/proteins (20 μL of 5X stock in RPMI, 0.5% DMSO) for 18 h. rBMP-4 and […] (R&D) were used as positive and negative controls, respectively. Plates were centrifuged at 3000 rpm for 10 min, then carefully aspirated. Cells were re-suspended in 100 μL lysis buffer (per well) and placed on a plate-shaker for 30 min. An aliquot of 80 μL of lysate was transferred to a white-walled 96-well plate, and luminescence was recorded 2 seconds after automated injection of luciferase substrate. Luminescence values were background subtracted (lysis buffer+substrate) and normalized to DMSO control values.
FKBP12KO Jurkat T cells transfected with FKBP12-SNAP plasmid were selected with 1200 μg/mL G418 for seven days before use in BRE-Luc assays.

[3] = system: cell migration stimulated by CXCL12; details: cited from earlier work
[4] = system: Jurkat T cells; test: Resazurin-based cell viability assay of Jurkat cells; details: 3 days, concentrations up to 10 μM
Experimental: as §1
Jurkat or HUVEC cells were plated at 1000 cells/well in 180 μL growth media before addition of 20 μL of 10X drug/protein stock. After incubation for 72 h, 22 μL of a resazurin sodium salt solution (0.1 mg/mL stock in water) was added to each well and allowed to incubate at 37° C. The metabolic conversion of resazurin dye was monitored by absorbance at 570 nm after 6 h. After background subtraction (media only+dye), absorbance values were left as arbitrary absorbance units or normalized to those obtained from cells treated with DMSO.

[5] = system: BMP type 1 receptor (SMAD1/5 phosphorylation); test: SMAD1/5 phosphorylation Western blot in Jurkat cells; assay type: cell-based; details: LDN treatment
[6] = system: full-thickness excisional wounds; test: In vivo excisional wound model in diabetic GK rats; design: species or system Goto-Kakizaki (GK) type-2 diabetic rats
Experimental: Goto-Kakizaki (GK) type-2 diabetic rats obtained from Charles River (Boston, MA) were housed in a pathogen-free facility and cared for according to NIH guidelines and a protocol approved by the Johns Hopkins University Animal Care and Use Committee (ACUC). Both male and female GK rats at age of 4-5 months were used in this study.
(§2) Full-thickness wounds were created in the dorsal skin of rats with a sterile disposable biopsy punch (8 mm in diameter). The animals were injected subcutaneously with saline, AMD3100 (1 mg/kg) plus FK506 (0.1 mg/kg) or AMD3100 (1 mg/kg) plus FKVP (0.1 mg/kg) immediately after wounding and every other day until complete healing, defined as complete re-epithelialization of the wound area. For assessing the role of BMP signaling, animals were injected intraperitoneally (i.p.) with LDN-193189 (2 mg/kg/day) in addition to standard saline or AF treatment. Wounds were evaluated daily according to the method described previously (Lin et al., 2014).
The one-way analysis of variance (ANOVA) was used to determine the statistically difference in wound healing among AF, AF+LDN, Saline and S+LDN groups or between AF, AV and Saline groups when comparing days of wound healing.

[7] = system: CD133+ stem cells in wound sites; test: CD133 immunohistochemistry of wound tissue of GK rats; assay type: in vivo, Goto-Kakizaki (GK) type-2 diabetic rats; details: day 7, versus AF
Experimental: as §2
Cut sections of 5 μm were prepared from frozen tissue for immunohistochemistry staining. Frozen sections were fixed with acetone at −20° C. for 10 min and dried for 1 h at room temperature. After inactivation of endogenous peroxidase and blocking of nonspecific antibody binding, the specimens were incubated with anti-CD133 (1:300, ab19898; Abcam) at 4° C. overnight. The tissue sections were then subsequently incubated with biotin-conjugated goat anti-rabbit IgG (1:200, #14708S Cell Signaling, Danvers, MA) for 30 minutes at room temperature. The VectaStain Elite ABC kit (HRP) (Vector Laboratories, Burlingame, CA) was used to increase the sensitivity of the staining. […]

## c1cc(CN2CCCNCCNCCCNCC2)ccc1CN1CCCNCCNCCCNCC1 [AMD3100, 1,1′-[1,4-phenylenebis(methylene)]bis-1,4,8,11-tetraazacyclo-tetradecane]
[1]
  healing, AMD3100 treatment alone: only slightly faster healing
[2]
  BRE reporter (ID-1 promoter luciferase) activation: no effect on ID-1 promoter stimulation
[3]
  IC50: 51 ± 17 nM

## C=CC[C@@H]1/C=C(\C)C[C@H](C)C[C@H](OC)[C@H]2O[C@@](O)(C(=O)C(=O)N3CCCC[C@H]3C(=O)O[C@H](/C(C)=C/[C@@H]3CC[C@@H](O)[C@H](OC)C3)[C@H](C)[C@@H](O)CC1=O)[C@H](C)C[C@@H]2OC [FK506]
[4]
  cell viability: did not affect cell viability

## c1ccc2c(-c3cnn4cc(-c5ccc(N6CCNCC6)cc5)cnc34)ccnc2c1 [LDN-193189]
[5]
  effect on FK506/FKVP-induced SMAD1/5 phosphorylation: abolished
[6]; LDN-193189 2 mg/kg/day i.p. plus AF
  time for complete healing, LDN added to AF combination: 25 days
[6]; LDN-193189 2 mg/kg/day i.p. with saline
  effect on wound healing, LDN alone: no effect on wound healing
[7]
  number of CD133+ cells in the wounds, LDN added to AF combination: dramatically reduced
[2]
  reduction of FK506- or FKVP-induced BRE reporter activity: completely blocked

B1: BMP4: recombinant BMP-4 protein, positive control of the BRE reporter (protein, UniProt P12644 293-408, looked up)
Bone morphogenetic protein 4: SPKHHSQRARKKNKNCRRHSLYVDFSDVGWNDWIVAPPGYQAFYCHGDCPFPLADHLNSTNHAIVQTLVNSVNSSIPKACCVPTELSAISMLYLDEYDKVVLKNYQEMVVEGCGCR
[2]
  BRE reporter (ID-1 promoter luciferase) activation: strong induction of luciferase expression

B2: Noggin: extracellular BMP-inhibitor protein (protein, UniProt Q13253 28-232, looked up)
Noggin: QHYLHIRPAPSDNLPLVDLIEHPDPIFDPKEKDLNETLLRSLLGGHYDPGFMATSPPEDRPGGGGGAAGGAEDLAELDQLLRQRPSGAMPSEIKGLEFSEGLAQGKKQRLSKKLRRKLQMWLWSQTFCPVLYAWNDLGSRFWPRYVKVGSCFSKRSCSVPEGMVCKPSKSVHLTVLRWRCQRRGGQRCGWIPIQYPIISECKCSC
[2]
  reduction of FK506- or FKVP-induced BRE reporter activity: not effective at reducing
